# In paper PMC10291553, “Exploring Structure–Activity Relationships in Photodynamic Therapy Anticancer Agents Based on Ir(III)-COUPY Conjugates” (Journal of Medicinal Chemistry, 2023):
# Values joined by “and” are separate entries in the source; they are usually repeats but may differ in a detail not shown here. Equal entries are not always repeated. Where two headings read alike, the source gives them in different places.
# Tests used:
# A375 = experiment: Photo- and cytotoxic activity determination (MTT), A375 cells; assay type: cell-based, human; conditions: normoxia; for IC50: 48 h drug-free medium; for A375 PI (phototherapeutic index), IC50 dark/IC50 irradiated: 520 nm, dark tested up to 100 μM
# Source text: (§1) Having shown that the Ir(III)-COUPY conjugates can sensitize both type I and II ROS through spectroscopic techniques and readily internalize into living cells, their photocytotoxicity was screened in various cancer cell lines. This screening included two representative melanoma cell lines (human A375 and […] human SK-MEL-28) and cancer cells with resistance to the clinical drug cisplatin. For the latter, both sensitive and cisplatin-resistant ovarian cancer cells (A2780 and A2780cis) as well as HeLa cells, which also show a degree of chemoresistance to the platinum anticancer drug in vitro,[54] were used. For the determination of dark and light cytotoxicity, dose–response curves were assayed from both conditions to provide the correspondent IC50 values, which correspond to the concentration needed for inhibition of cell growth by 50%. Phototherapeutic index (PI) was calculated as the ratio of dark to light IC50 value for each compound.
# (§2) A375, HeLa, and SK-MEL-28 cells were cultured in Dulbecco’s modified Eagle medium (DMEM) supplemented with 10% FBS, L-glutamine, and 1% penicillin–streptomycin. A2780 and A2780cis cells were grown in RPMI-1640 cell medium supplemented with 10% fetal bovine serum (FBS) and 2 mM L-glutamine. Acquired resistance to cisplatin in the A2780cis cell line was maintained by adding cisplatin 1 μM to culture medium every second passage. Cells were cultured in a humidified incubator at 310 K with 5% CO2 atmosphere and subcultured two or three times a week with appropriate densities and were confirmed to be mycoplasma-free using a standard Hoechst DNA staining method.
# (§3) A2780, A2780cis, HeLa, A375, and SK-MEL-28 cells were maintained at logarithmic growth-phase and cultured in 96-well plates at a density of 5000 cells/well in complete medium for 24 h at 310 K, 5% CO2 in a humidified incubator. For hypoxia experiments, a hypoxia condition was set up by Tissue Culture Service at University of Murcia using nitrogen (N2) to displace O2 down to a minimum of 2% in a Forma Steri-Cycle i160 incubator (Thermo Fisher Scientific). Serial dilutions of the compounds were added at the final concentrations in the range of 0–100 μM in a final volume of 100 μL per well. A light-based treatment schedule was performed as follows: 1 h incubation with the compounds in the dark, followed by 1 h incubation under irradiation conditions by placing the Photoreactor EXPO-LED from Luzchem (Canada) fitted with green lamps (final light intensity applied of 1.5 mW/cm^2 at λmax = 520 nm) inside the CO2 incubator. All the cell culture plates subjected to light irradiation included untreated controls to verify that cell viability was not affected by light. Then, treatment-containing media was removed, and fresh media was added for a 48 h cell recovery period; the temperature throughout the experiment remained at 310 K. Dark control samples were placed in the same dark conditions and then kept incubated for 1 h in the dark in the humidified CO2 incubator. Medium was then aspirated by suction, cells were loaded with 50 μL of MTT solution (1 mg/mL) for additional 4 h and then removed, and 50 μL of DMSO was added to solubilize the purple formazan crystals formed in active cells. The absorbance was measured at 570 nm using a microplate reader (FLUOstar Omega), and the IC50 values were calculated based on the inhibitory rate curves using the following equation [drawing 4] 4 where I represents the percentage inhibition of viability observed, Imax is the maximal inhibitory effect, IC50 is the concentration that inhibits 50% of maximal growth, C is the concentration of the treatment, and n is the slope of the semi-logarithmic dose–response sigmoidal curves. The non-linear fitting was performed using SigmaPlot 14.0 software. All experiments were performed in three independent studies with n = 3 replicates per concentration level. For a detailed phototoxicity procedure, ref ([43]) includes technical explanations.
# SK-MEL-28 = experiment: Photo- and cytotoxic activity determination (MTT), SK-MEL-28 cells; assay type: cell-based, human; conditions: normoxia; for IC50: 48 h drug-free medium; for SK-MEL-28 PI (phototherapeutic index), IC50 dark/IC50 irradiated: 520 nm, dark tested up to 100 μM
# Source text: as §1, §2, §3
# A2780 = experiment: Photo- and cytotoxic activity determination (MTT), A2780 cells; assay type: cell-based; conditions: normoxia; for IC50: 48 h drug-free medium; for A2780 PI (phototherapeutic index), IC50 dark/IC50 irradiated: 520 nm, dark tested up to 100 μM
# Source text: as §1, §2, §3
# A2780cis cells = experiment: Photo- and cytotoxic activity determination (MTT), A2780cis cells, normoxia or hypoxia; assay type: cell-based; conditions: for Hypoxia PI (phototherapeutic index) / Normoxia PI (phototherapeutic index): dark tested up to 250 μM; for A2780cis PI (phototherapeutic index), IC50 dark/IC50 irradiated: dark tested up to 100 μM
# Source text: as §1, §2
# as §3, with “Serial dilutions of the compounds were added at the final concentrations in the range of 0–100 μM in a final volume of 100 μL per well.” left out
# [1] = Homo sapiens, A-375, 1 h incubation + 1 h green light 520 nm, 1.5 mW cm^–2, read-out: A375 light IC50
# [2] = Homo sapiens, A-375, kept in the dark, 2 h treatment, read-out: A375 dark IC50
# [3] = Homo sapiens, SK-MEL-28, 1 h incubation + 1 h green light 520 nm, 1.5 mW cm^–2, read-out: SK-MEL-28 light IC50
# [4] = Homo sapiens, SK-MEL-28, kept in the dark, 2 h treatment, read-out: SK-MEL-28 dark IC50
# [5] = Homo sapiens, A2780, 1 h incubation + 1 h green light 520 nm, 1.5 mW cm^–2, read-out: A2780 light IC50
# [6] = Homo sapiens, A2780, kept in the dark, 2 h treatment, read-out: A2780 dark IC50
# [7] = 250 μM, A2780cis, 2 h incubation in the dark, 48 h drug-free recovery, hypoxia, read-out: Partial inhibition (% of cell growth inhibition with respect to untreated controls), Hypoxia
# [8] = 250 μM, A2780cis, 2 h incubation in the dark, 48 h drug-free recovery, normoxia, read-out: Partial inhibition (% of cell growth inhibition with respect to untreated controls), Normoxia
# [9] = A2780cis, hypoxia 2% O2, 520 nm
# [10] = A2780cis, hypoxia 2% O2, dark, tested up to 250 μM, read-out: Hypoxia Dark IC50
# [11] = A2780cis, hypoxia, 520 nm, read-out: A2780cis Light 520 nm IC50 (microM) Hypoxia
# [12] = A2780cis, hypoxia, dark, read-out: A2780cis Dark IC50 (microM) Hypoxia
# [13] = A2780cis, normoxia 21% O2, 520 nm
# [14] = A2780cis, normoxia 21% O2, dark, tested up to 250 μM, read-out: Normoxia Dark IC50
# [15] = A2780cis, normoxia, 1 h incubation + 1 h green light 520 nm, 1.5 mW cm^–2, 48 h drug-free medium, read-out: A2780cis light IC50
# [16] = A2780cis, normoxia, kept in the dark, tested up to 100 μM, 2 h treatment, 48 h drug-free medium, read-out: A2780cis dark IC50
structure (smiles),measurement,setting,value
CCN(CC)c1ccc2c(c1)O/C(=C(/C#N)c1cc[n+](C)cc1)C=C2C [1a],IC50,A375; [1],1.1 ± 0.1 µM
same,IC50,A375; [2],> 100 µM
same,"A375 PI (phototherapeutic index), IC50 dark/IC50 irradiated",A375,> 89
same,IC50,SK-MEL-28; [3],1.2 ± 0.1 µM
same,IC50,SK-MEL-28; [4],> 100 µM
same,"SK-MEL-28 PI (phototherapeutic index), IC50 dark/IC50 irradiated",SK-MEL-28,> 86
same,IC50,A2780; [5],5.2 ± 0.5 µM
same,IC50,A2780; [6],> 100 µM
same,"A2780 PI (phototherapeutic index), IC50 dark/IC50 irradiated",A2780,> 19
same,inhibition at 250 µM,A2780cis cells; [7],2.1 ± 0.4%
same,inhibition at 250 µM,A2780cis cells; [8],3.5 ± 0.9%
same,Hypoxia PI (phototherapeutic index),A2780cis cells; [9],> 100.0
same,IC50,A2780cis cells; [10],> 250 µM
same,IC50,A2780cis cells; [11],2.5 ± 0.2 µM
same,IC50,A2780cis cells; [12],> 250 µM
same,Normoxia PI (phototherapeutic index),A2780cis cells; [13],> 119.1
same,IC50,A2780cis cells; [14],> 250 µM
same,IC50,A2780cis cells; [15],2.1 ± 0.2 µM
same,IC50,"A2780cis cells; A2780cis, normoxia, dark, up to 250 microM, read-out: A2780cis Dark IC50 (microM) Normoxia",> 250 µM
same,IC50,A2780cis cells; [16],> 100 µM
same,"A2780cis PI (phototherapeutic index), IC50 dark/IC50 irradiated","A2780cis cells; normoxia, 520 nm",> 48
CCCCn1c2[n+](c3cc(C(=O)NCCCNC(=O)C[n+]4ccc(/C(C#N)=C5/C=C(C)c6ccc(N(CC)CC)cc6O5)cc4)ccc31)[Ir-3]13([c]4ccccc4-c4[nH]c5ccccc5[n+]41)([c]1ccccc1-c1[nH]c4ccccc4[n+]13)[n+]1c-2ccc2ccccc21 [3a],"A375 PI (phototherapeutic index), IC50 dark/IC50 irradiated",A375,> 6
same,IC50,"A375; 1 h incubation + 1 h green light 520 nm, 1.5 mW cm^–2, read-out: A375 light IC50",18 ± 3 µM
same,IC50,"A375; kept in the dark, 2 h treatment, read-out: A375 dark IC50",> 100 µM
same,"SK-MEL-28 PI (phototherapeutic index), IC50 dark/IC50 irradiated",SK-MEL-28,> 67
same,IC50,"SK-MEL-28; 1 h incubation + 1 h green light 520 nm, 1.5 mW cm^–2, read-out: SK-MEL-28 light IC50",1.5 ± 0.1 µM
same,IC50,"SK-MEL-28; kept in the dark, 2 h treatment, read-out: SK-MEL-28 dark IC50",> 100 µM
same,"A2780 PI (phototherapeutic index), IC50 dark/IC50 irradiated",A2780,> 94
same,IC50,"A2780; 1 h incubation + 1 h green light 520 nm, 1.5 mW cm^–2, read-out: A2780 light IC50",1.07 ± 0.07 µM
same,IC50,"A2780; kept in the dark, 2 h treatment, read-out: A2780 dark IC50",> 100 µM
same,"Partial inhibition (% of cell growth inhibition with respect to untreated controls), Hypoxia","A2780cis cells; 250 μM, A2780cis, 2 h incubation in the dark, 48 h drug-free recovery, hypoxia",49 ± 4%
same,"Partial inhibition (% of cell growth inhibition with respect to untreated controls), Normoxia","A2780cis cells; 250 μM, A2780cis, 2 h incubation in the dark, 48 h drug-free recovery, normoxia",58 ± 7%
same,"PI (phototherapeutic index), blue light","A2780cis cells; A2780cis, 465 nm",> 52.6
same,IC50,"A2780cis cells; A2780cis, 1 h incubation + 1 h blue light 465 nm, 5 mW/cm2, 48 h drug-free, read-out: 465 nm IC50",1.9 µM
same,Hypoxia PI (phototherapeutic index),A2780cis cells; [9],> 65.8 and > 66
same,IC50,A2780cis cells; [10],> 250 µM
same,Normoxia PI (phototherapeutic index),A2780cis cells; [13],> 357.1 and > 357
same,IC50,A2780cis cells; [14],> 250 µM
same,IC50,"A2780cis cells; hypoxia, 520 nm, read-out: A2780cis Light 520 nm IC50 (microM) Hypoxia",3.8 ± 0.3 µM
same,IC50,"A2780cis cells; hypoxia, dark, read-out: A2780cis Dark IC50 (microM) Hypoxia",> 250 µM
same,"A2780cis PI (phototherapeutic index), IC50 dark/IC50 irradiated","A2780cis cells; normoxia, 520 nm",> 143
same,IC50,"A2780cis cells; normoxia, 1 h incubation + 1 h green light 520 nm, 1.5 mW cm^–2, 48 h drug-free medium, read-out: A2780cis light IC50",0.7 ± 0.06 µM
same,IC50,"A2780cis cells; normoxia, dark, up to 250 microM, read-out: A2780cis Dark IC50 (microM) Normoxia",> 250 µM
same,IC50,"A2780cis cells; normoxia, kept in the dark, tested up to 100 μM, 2 h treatment, 48 h drug-free medium, read-out: A2780cis dark IC50",> 100 µM
CC1=C/C(=C(\C#N)c2cc[n+](C)cc2)Oc2c1cc1c3c2CCCN3CCC1 [1c],IC50,A375; [1],0.31 ± 0.02 µM
same,IC50,A375; [2],9.9 ± 0.5 µM
same,"A375 PI (phototherapeutic index), IC50 dark/IC50 irradiated",A375,32
same,IC50,SK-MEL-28; [3],0.2 ± 0.01 µM
same,IC50,SK-MEL-28; [4],12 ± 1 µM
same,"SK-MEL-28 PI (phototherapeutic index), IC50 dark/IC50 irradiated",SK-MEL-28,60
same,IC50,A2780; [5],0.09 ± 0.01 µM
same,IC50,A2780; [6],5.1 ± 0.9 µM
same,"A2780 PI (phototherapeutic index), IC50 dark/IC50 irradiated",A2780,57
same,inhibition at 250 µM,A2780cis cells; [7],100%
same,inhibition at 250 µM,A2780cis cells; [8],100%
same,Hypoxia PI (phototherapeutic index),A2780cis cells; [9],36.4
same,IC50,A2780cis cells; [11],0.6 ± 0.1 µM
same,IC50,A2780cis cells; [12],20 ± 2 µM
same,Normoxia PI (phototherapeutic index),A2780cis cells; [13],100.0
same,IC50,A2780cis cells; [15],0.15 ± 0.04 µM
same,IC50,A2780cis cells; [16],15 ± 2 µM
same,"A2780cis PI (phototherapeutic index), IC50 dark/IC50 irradiated","A2780cis cells; normoxia, 520 nm",100
